Key:
[1] = system: HL60 cells; test: cells
Method: Assessment of cytotoxicity in HL60 and K562 cells by clonogenic assay. The assay used is based on Schweitzer et al (Exper. Hematol. 21: 573-578, 1993). HL60 or K562 cells were cultured in 96-well microplates, at 800 cells per well, in a medium of 0.6% methyl cellulose (Methocel A4M, Dow Chemicals, USA), 10% fetal calf serum, RPMI 1640 (Life Technologies Ltd, UK), and gentamycin (50 μg/ml, Biological Industries, Israel). Microculture wells received 10 μl of NAD, NADP, NADH, ADP-ribose, nicotinamide (NAM), or 3-acetyl pyridine adenine dinucleotide solutions within which the final concentrations were adjusted to be between 0-5000 μM after addition of 190 μl cell-containing medium. Final methyl cellulose concentration was 0.6%. […] In the case of the radiosensitization experiments, the cells were irradiated with 1-2 Gy gamma radiation 15 minutes before addition of NAD. The central area of the bottom of each well (25% of total) was counted, and the counts of colonies and clusters expressed as % of control in order to avoid influences from inter-experimental baseline variations.

[2] = system: HL60 (human promyeloid leukemia line) cells; test: Measurement of in vitro cytotoxicity by apoptosis; assay type: cell-based
Method: Cell culture. HL60 (human promyeloid leukemia line) cells were cultured at a density of 0.5×106 to 1.0×10^6 cells/ml in RPMI medium supplemented with 10% fetal calf serum (FCS) at 37° C. in a 5% CO2 atmosphere. The cells were harvested by centrifugation and resuspended in fresh medium at a concentration of 1×106 to 2×10^6 cells/ml for bioassay purposes.
Measurement of in vitro cytotoxicity by apoptosis. HL60 cells were exposed in culture to 2 Gy radiation, 100 μM nMCA (neutral metoclopramide, Neu-Sensamide), 0-5000 μM NAD±10 mM, and±NADase inhibitor, 3-acetyl pyridine adenine dinucleotide, given 30 minutes before drug treatment. The % apoptosis was determined after 6 hours. The cytotoxicity was evaluated by morphological identification of apoptotic cells (400 ×magnification with phase contrast microscopy) using trypan blue exclusion (0.1% isotonic solution+5% serum) after 5 minutes incubation at room temperature. Apoptotic cells were identified as having chromatin condensation, shrinkage, membrane blebbing, fragmentation and appearance of “apoptotic bodies” (Kaufman et al, Cancer Res. 53:3976-3985, 1993).

[3] = system: K562 leukemic cells; assay type: cell-based
Source text: Final methyl cellulose concentration was 0.6%.

[4] = system: human lung adenocarcinoma (H2981) xenograft; test: Evaluation of antitumor activity of NAD in vivo; parameters: species or system Scid mice; details: NAD i.p. 25 or 50 mg/kg, 21 days
Method: Evaluation of antitumor activity of NAD in vivo. Scid mice (n=10 per group) were transplanted by subcutaneous injection of H-2981 (human adenocarcinoma) tumor tissue suspension in the right flank. When the tumors grew to 80-100 mm2, the animals were divided into three groups: Group 1 was injected i.p. with saline, Group 2 was injected i.p. with NAD at 25 mg/kg dissolved in saline, and Group 3 was injected i.p. with NAD at 50 mg/kg. The treatment schedule was daily Monday through Friday with no treatment Saturday and Sunday for 21 days. Tumor volumes were recorded every other day for 21 days and converted to AUC tumor growth values as previously described in detail (Hua et al, Anti-Cancer Drugs 6: 451-455, 1995).

Compound	clonogenic cytotoxicity (number of colonies) [1]	clonogenic cytotoxicity (number of colonies) [3]	further results
CC(=O)c1ccc[n+]([C@@H]2O[C@H](COP(=O)([O-])OP(=O)(O)OC[C@H]3O[C@@H](n4cnc5c(N)ncnc54)[C@H](O)[C@@H]3O)[C@@H](O)[C@H]2O)c1 [3-acetyl pyridine adenine dinucleotide, reference compound]	can nonetheless show cytotoxicity	can nonetheless show cytotoxicity	induction of apoptosis ([2]; % apoptosis after 6 hours, without NADase inhibitor): cannot induce cytoxicity by apoptosis
Nc1ncnc2c1ncn2[C@@H]1O[C@H](COP(=O)(O)OP(=O)(O)OC[C@H]2OC(O)[C@H](O)[C@@H]2O)[C@@H](O)[C@H]1O (some centres unmarked) [ADP-ribose]	equally effective at inducing cytotoxicity	the same	
NC(=O)c1ccc[n+]([C@@H]2O[C@H](COP(=O)([O-])OP(=O)(O)OC[C@H]3O[C@@H](n4cnc5c(N)ncnc54)[C@H](O)[C@@H]3O)[C@@H](O)[C@H]2O)c1 [NAD, nicotinamide adenine dinucleotide]		the same	body weight loss or acute symptoms [4]: no significant body weight loss or acute symptoms; IC50 ([1]; Homo sapiens, HL-60, 144 h, read-out: Doses that result in >50% inhibition of clonogenicity): < 500 µM
NC(=O)C1=CN([C@@H]2O[C@H](COP(=O)(O)OP(=O)(O)OC[C@H]3O[C@@H](n4cnc5c(N)ncnc54)[C@H](O)[C@@H]3O)[C@@H](O)[C@H]2O)C=CC1 [NADH]	equally effective at inducing cytotoxicity		
NC(=O)c1cccnc1 [Nicotinamide, nicotinamide]	little to no effect on clonogenicity		
CCN(CC)CCNC(=O)c1cc(Cl)c(N)cc1OC [nMCA, neutral metoclopramide]			effect of NADase inhibitor on drug induced apoptosis ([2]; 10 mM 3-acetyl pyridine adenine dinucleotide given 30 minutes before drug, 6 hours): unaffected by the presence of the NADase inhibitor

Source: patent US6339073B1, “Uses of nicotinamide adenine dinucleotide and its derivatives for treatment of malignant and infectious diseases” (Oxigene, Inc., priority 1997, dated 2002)
